Experimental data: ChEMBL document CHEMBL5528028, “Discovery of benzopyridone cyanoacetates as new type of potential broad-spectrum antibacterial candidates” (Eur J Med Chem, 2024)
Values after ≈ are worked out from the molar mass of the structure shown.

Key:
Type in all cases: functional
Staphylococcus aureus [1] = assay: Antibacterial activity against methicillin-resistant Staphylococcus aureus assessed growth inhibition by micro broth dilution method
Staphylococcus aureus [2] = assay: Antibacterial activity against Staphylococcus aureus assessed growth inhibition by micro broth dilution method
Staphylococcus aureus [3] = assay: Antibacterial activity against Staphylococcus aureus ATCC 25923 assessed growth inhibition by micro broth dilution method
Staphylococcus aureus [4] = assay: Antibacterial activity against Staphylococcus aureus ATCC 29213 assessed growth inhibition by micro broth dilution method
Enterococcus faecalis = assay: Antibacterial activity against Enterococcus faecalis assessed growth inhibition by micro broth dilution method
Klebsiella pneumoniae = assay: Antibacterial activity against Klebsiella pneumonia assessed growth inhibition by micro broth dilution method
Escherichia coli [5] = assay: Antibacterial activity against Escherichia coli assessed growth inhibition by micro broth dilution method
Escherichia coli [6] = assay: Antibacterial activity against Escherichia coli ATCC 25922 assessed growth inhibition by micro broth dilution method
Pseudomonas aeruginosa [7] = assay: Antibacterial activity against Pseudomonas aeruginosa assessed growth inhibition by micro broth dilution method
Pseudomonas aeruginosa [8] = assay: Antibacterial activity against Pseudomonas aeruginosa ATCC 27853 assessed growth inhibition by micro broth dilution method
Acinetobacter baumannii = assay: Antibacterial activity against Acinetobacter baumannii assessed growth inhibition by micro broth dilution method

Structure (SMILES) | MIC (Staphylococcus aureus [1]) [µg/mL] | MIC (Staphylococcus aureus [2]) [µg/mL] | MIC (Staphylococcus aureus [3]) [µg/mL] | MIC (Staphylococcus aureus [4]) [µg/mL] | MIC (Enterococcus faecalis) [µg/mL] | MIC (Klebsiella pneumoniae) [µg/mL] | MIC (Escherichia coli [5]) [µg/mL] | MIC (Escherichia coli [6]) [µg/mL] | MIC (Pseudomonas aeruginosa [7]) [µg/mL] | MIC (Pseudomonas aeruginosa [8]) [µg/mL] | MIC (Acinetobacter baumannii) [µg/mL]
CCOC(=O)c1cn(CC(N)=O)c2cc(F)c(F)cc2c1=O | 256 (≈ 825 µM) | 128 (≈ 413 µM) | 256 (≈ 825 µM) | 256 (≈ 825 µM) | 256 (≈ 825 µM) | 256 (≈ 825 µM) | 8 (≈ 25.8 µM) | 32 (≈ 103 µM) | 64 (≈ 206 µM) | 64 (≈ 206 µM) | 16 (≈ 51.6 µM)
CCOC(=O)c1cn(Cc2ccccn2)c2cc([C-](C#N)C(=O)OCC)c(F)cc2c1=O.[Na+] (stereo unspecified) | 256 | 256 | 256 | 256 | 256 | 256 | 256 | 128 | 128 | 128 | 256
CCCCn1cc(C(=O)OCC)c(=O)c2cc(F)c([C-](C#N)C(=O)OCC)cc21.[Na+] (stereo unspecified) | 32 | 64 | 2 | 8 | 16 | 16 | 8 | 16 | 8 | 8 | 16
NC1CCN(c2c(F)cc3c(=O)c(C(=O)O)cn(C4CC4)c3c2Cl)C1 (stereo unspecified) [CLINAFLOXACIN] | 1 (≈ 2.73 µM) | 0.5 (≈ 1.37 µM) | 0.5 (≈ 1.37 µM) | 0.5 (≈ 1.37 µM) | 4 (≈ 10.9 µM) | 0.5 (≈ 1.37 µM) | 0.25 (≈ 0.683 µM) | 0.25 (≈ 0.683 µM) | 0.5 (≈ 1.37 µM) | 0.5 (≈ 1.37 µM) | 0.5 (≈ 1.37 µM)
CCOC(=O)c1cn(CC(=O)N2CCN(C(=O)OC(C)(C)C)CC2)c2cc([C-](C#N)C(=O)OCC)c(F)cc2c1=O.[Na+] (stereo unspecified) | 32 | 256 | 16 | 32 | 64 | 128 | 16 | 16 | 64 | 4 | 32
CCOC(=O)c1cn(Cc2ccc(Cl)c(Cl)c2)c2cc(F)c(F)cc2c1=O | 256 (≈ 621 µM) | 16 (≈ 38.8 µM) | 256 (≈ 621 µM) | 256 (≈ 621 µM) | 128 (≈ 311 µM) | 0.5 (≈ 1.21 µM) | 8 (≈ 19.4 µM) | 2 (≈ 4.85 µM) | 32 (≈ 77.6 µM) | 64 (≈ 155 µM) | 256 (≈ 621 µM)
CCOC(=O)c1cn(Cc2ccc(Cl)cc2)c2cc(F)c(F)cc2c1=O | 256 (≈ 678 µM) | 64 (≈ 169 µM) | 256 (≈ 678 µM) | 256 (≈ 678 µM) | 64 (≈ 169 µM) | 32 (≈ 84.7 µM) | 1 (≈ 2.65 µM) | 128 (≈ 339 µM) | 256 (≈ 678 µM) | 256 (≈ 678 µM) | 4 (≈ 10.6 µM)
CCOC(=O)c1cn(Cc2ccc(Cl)c(Cl)c2)c2cc(C(C#N)C(=O)OCC)c(F)cc2c1=O (stereo unspecified) | 8 (≈ 15.8 µM) | 4 (≈ 7.92 µM) | 1 (≈ 1.98 µM) | 0.25 (≈ 0.495 µM) | 16 (≈ 31.7 µM) | 1 (≈ 1.98 µM) | 8 (≈ 15.8 µM) | 4 (≈ 7.92 µM) | 0.5 (≈ 0.989 µM) | 2 (≈ 3.96 µM) | 2 (≈ 3.96 µM)
CCOC(=O)c1cn(Cc2ccc(F)cc2F)c2cc(C(C#N)C(=O)OCC)c(F)cc2c1=O (stereo unspecified) | 32 (≈ 67.7 µM) | 8 (≈ 16.9 µM) | 4 (≈ 8.47 µM) | 4 (≈ 8.47 µM) | 16 (≈ 33.9 µM) | 4 (≈ 8.47 µM) | 16 (≈ 33.9 µM) | 16 (≈ 33.9 µM) | 2 (≈ 4.23 µM) | 4 (≈ 8.47 µM) | 32 (≈ 67.7 µM)
CCOC(=O)c1cn(C2CC2)c2cc(C(C#N)C(=O)OCC)c(F)cc2c1=O (stereo unspecified) | 128 (≈ 331 µM) | 16 (≈ 41.4 µM) | 8 (≈ 20.7 µM) | 32 (≈ 82.8 µM) | 32 (≈ 82.8 µM) | 8 (≈ 20.7 µM) | 32 (≈ 82.8 µM) | 32 (≈ 82.8 µM) | 8 (≈ 20.7 µM) | 64 (≈ 166 µM) | 32 (≈ 82.8 µM)
CCOC(=O)c1cn(C2CC2)c2cc([C-](C#N)C(=O)OCC)c(F)cc2c1=O.[Na+] (stereo unspecified) | 16 | 32 | 8 | 32 | 16 | 16 | 16 | 32 | 32 | 16 | 32
C=CCn1cc(C(=O)OCC)c(=O)c2cc(F)c(F)cc21 | 256 (≈ 873 µM) | 128 (≈ 436 µM) | 64 (≈ 218 µM) | 128 (≈ 436 µM) | 128 (≈ 436 µM) | 32 (≈ 109 µM) | 8 (≈ 27.3 µM) | 64 (≈ 218 µM) | 64 (≈ 218 µM) | 256 (≈ 873 µM) | 256 (≈ 873 µM)
CCOC(=O)c1cn(Cc2ccc(Cl)cc2)c2cc([C-](C#N)C(=O)OCC)c(F)cc2c1=O.[Na+] (stereo unspecified) | 64 | 64 | 1 | 2 | 1 | 2 | 0.5 | 1 | 16 | 2 | 64
CCOC(=O)C(C#N)c1c(F)cc2c(=O)c(C(=O)O)cn3c2c1OC[C@@H]3C (stereo partly specified) | 4 (≈ 10.7 µM) | 4 (≈ 10.7 µM) | 32 (≈ 85.5 µM) | 4 (≈ 10.7 µM) | 128 (≈ 342 µM) | 8 (≈ 21.4 µM) | 32 (≈ 85.5 µM) | 1 (≈ 2.67 µM) | 16 (≈ 42.7 µM) | 8 (≈ 21.4 µM) | 1 (≈ 2.67 µM)
CCOC(=O)c1cn(CC=C(C)C)c2cc([C-](C#N)C(=O)OCC)c(F)cc2c1=O.[Na+] (stereo unspecified) | 256 | 256 | 0.5 | 8 | 256 | 8 | 256 | 8 | 256 | 8 | 256
CCCCCn1cc(C(=O)OCC)c(=O)c2cc(F)c(F)cc21 | 256 (≈ 792 µM) | 32 (≈ 99 µM) | 256 (≈ 792 µM) | 64 (≈ 198 µM) | 64 (≈ 198 µM) | 64 (≈ 198 µM) | 16 (≈ 49.5 µM) | 64 (≈ 198 µM) | 64 (≈ 198 µM) | 256 (≈ 792 µM) | 64 (≈ 198 µM)
CCOC(=O)c1cn(Cc2ccccn2)c2cc(F)c(F)cc2c1=O | 256 (≈ 744 µM) | 64 (≈ 186 µM) | 64 (≈ 186 µM) | 128 (≈ 372 µM) | 128 (≈ 372 µM) | 128 (≈ 372 µM) | 2 (≈ 5.81 µM) | 64 (≈ 186 µM) | 128 (≈ 372 µM) | 64 (≈ 186 µM) | 16 (≈ 46.5 µM)
CCOC(=O)c1cn(Cc2ccccc2Cl)c2cc(F)c(F)cc2c1=O | 256 (≈ 678 µM) | 128 (≈ 339 µM) | 256 (≈ 678 µM) | 256 (≈ 678 µM) | 4 (≈ 10.6 µM) | 32 (≈ 84.7 µM) | 2 (≈ 5.29 µM) | 128 (≈ 339 µM) | 256 (≈ 678 µM) | 256 (≈ 678 µM) | 32 (≈ 84.7 µM)
CCOC(=O)c1cn(CC)c2cc([C-](C#N)C(=O)OCC)c(F)cc2c1=O.[Na+] (stereo unspecified) | 64 | 256 | 2 | 64 | 64 | 32 | 64 | 32 | 32 | 32 | 32
CCOC(=O)C(C#N)c1cc2c(cc1F)c(=O)c(C(=O)O)cn2CC=C(C)C (stereo unspecified) | 8 (≈ 20.7 µM) | 4 (≈ 10.4 µM) | 4 (≈ 10.4 µM) | 4 (≈ 10.4 µM) | 64 (≈ 166 µM) | 0.25 (≈ 0.647 µM) | 32 (≈ 82.8 µM) | 1 (≈ 2.59 µM) | 8 (≈ 20.7 µM) | 1 (≈ 2.59 µM) | 1 (≈ 2.59 µM)
CCOC(=O)c1cn(CCN2CCOCC2)c2cc([C-](C#N)C(=O)OCC)c(F)cc2c1=O.[Na+] (stereo unspecified) | 256 | 256 | 256 | 256 | 256 | 256 | 256 | 256 | 256 | 256 | 256
